Laboratory results from patent US5783562A, “Luteinizing hormone releasing hormone analogs” (Asta Medica Aktiengesellschaft, priority 1990, dated 1998).
Read-outs that look alike come from different tables or passages of the source. Values belong to the compound of their own block, whether it stands above or below them. Non-standard residues stand in square brackets, D forms with d. Residues, ends and D or L forms follow the SMILES beside them. dPhe(4-Cl) = N[C@H](Cc1ccc(Cl)cc1)C(=O)O; d2Nal = N[C@H](Cc1ccc2ccccc2c1)C(=O)O; d3Pal = N[C@H](Cc1cccnc1)C(=O)O

Assays:
mast cells [1] = settings: neuropeptide SP, background; cited from earlier work
[2] = Water-solubility / hydrophilicity of the peptides; type: physicochemical
mast cells [3] = type: cell-based, rat
Description: The healthy, adult, male SD rats (BW 200-250 g) used in this experiment were housed in the same conditions as for the adult, female SD rats above. After anesthetizing with CO2, the peritoneal cavity was washed with 50 ml of PIPES AC medium containing 20 units of heparin. Following centrifugation at 200×g for 8 min. at 4° C., the cells were washed again and resuspended to a concentration of 8-to-24×10^5 total leukocytes/ml in […]. This suspension contained approximately 5-10% mast cells. Washed cells were used immediately after collection and were prewarmed for 5 min. at 37° C. prior to pipetting 0.3 ml aliquots into polystyrene tubes containing 0.3 ml of diluted peptide. The mixtures were incubated for 15 min. at 37° C., and the reaction was stopped by centrifugation at 400×g for 15 min. at 4° C. The supernatants were assayed for histamine content by manual fluorometric assay method after successful extraction with n-butanol and n-heptane. The histamine content can be obtained from the histamine standard curve (see below). The percentage of histamine release can be calculated from the following equation: [formula] where E is the fluorometric reading of the experimental sample, B is the fluorometric reading of samples with cells and buffer only, and C is the fluorometric reading of "complete" samples (cells treated with HCIO4). The standard curve can be obtained by plotting the OD values on a fluorometer at 350 nm/450 nm (activation/fluorescent) against the concentrations of serially diluted solutions of accurately weighed histamine hydrochloride. The relative parameter (r) of the histamine standard curve can be 0.9998, and the lowest detectable concentration of histamine is 0.5 ng/ml. The ED50 value of a peptide can be determined from the dose response curves obtained by plotting the histamine release versus the peptide concentration on semilogarithmic paper. All peptide samples should be tested with mast cells from a minimum of 3 different rats.

rat ovulation = experiment: Corbin's rat antiovulation method (antiovulatory activity, AOA); type: in vivo; settings: in saline, at noon of proestrus, female SD rats
Description: Corbin's rat antiovulation method was used in the present invention. Healthy, adult, female SD rats (BW 200-250 g) were used in this experiment. All animals were maintained at 22°-24° C. and on a 14 hr./10 hr. (light/dark) schedule. They were given standard food and water ad libitum. Only those rats showing at least two consecutive 4-day estrous cycles in vaginal smear examination could be used in this experiment. The rats were given peptides (LHRH antagonists) at noon of proestrus with different doses in saline solution. The rats were sacrificed the next day, and both portions of their oviducts were examined using a dissecting microscope in order to determine the ovum number. The rats were divided into several groups according to the dosing, and each group consisted of about 10 rats. The control group, which was given an equivalent amount of saline, consisted of 9-10 rats. […] Evaluation of Histamine Releasing Activity

Compound: Arg^1 -Pro^2 -Lys^3 -Pro^4 -Gln^5 -Gln^6 -Phe^7 -Phe^8 -Gly^9 -Leu^10 -Met^11 -NH2 [neuropeptide SP]
ED50 for HRA (mast cells [1]): 5 to 15 µM

hydrophilicity [2]: very strong hydrophilicity
Compound: CC(=O)N[C@H](Cc1ccc2ccccc2c1)C(=O)N[C@H](Cc1ccc(Cl)cc1)C(=O)N[C@H](Cc1cccnc1)C(=O)N[C@@H](CO)C(=O)N[C@@H](CCCNC(=N)N)C(=O)N[C@H](Cc1cccnc1)C(=O)N[C@@H](CC(C)C)C(=O)N[C@@H](CCCNC(=N)N)C(=O)N1CCC[C@H]1C(=O)N[C@H](C)C(N)=O [IV, NAc-D2Nal^1 -DpClPhe^2 -D3Pal^3 -Ser^4 -Arg^5 -D3Pal^6 -Leu^7 -Arg^8 -Pro^9 -DAla^10 -NH2] (Ac-[d2Nal][dPhe(4-Cl)][d3Pal]SR[d3Pal]LRP[dA]-NH2)

Compound: CC(=O)N[C@H](Cc1ccc2ccccc2c1)C(=O)N[C@H](Cc1ccc(Cl)cc1)C(=O)N[C@H](Cc1cccnc1)C(=O)N[C@@H](CO)C(=O)N[C@@H](Cc1ccc(O)cc1)C(=O)N[C@H](Cc1cccnc1)C(=O)N[C@@H](CC(C)C)C(=O)N[C@@H](CCCNC(=N)N)C(=O)N1CCC[C@H]1C(=O)N[C@H](C)C(N)=O [III, NAc-D2Nal^1 -DpClPhe^2 -D3Pal^3 -Ser^4 -Tyr^5 -D3Pal^6 -Leu^7 -Arg^8 -Pro^9 -DAla^10 -NH2] (Ac-[d2Nal][dPhe(4-Cl)][d3Pal]SY[d3Pal]LRP[dA]-NH2)
HRA (μg/ml) ED50 ± SEM (mast cells [3]): 9.8 µg/mL

Compound: NAc-D2Nal^1 -DpClPhe^2 -DPhe^3 Ser^4 -Arg^5 -D3Pal^6 -Leu^7 -Arg^8 -Pro^9 -DAla^10 -NH2 [V]
% AOA/μg 0.25 (rat ovulation; 0.25 μg): 29%
% AOA/μg 0.5 (rat ovulation; 0.5 μg): 60%
% AOA/μg 1.0 (rat ovulation; 1.0 μg): 100%
HRA (μg/ml) ED50 ± SEM (mast cells [3]; in vitro histamine release, rat peritoneal mast cells): 7.4 µg/mL

Compound: CC(=O)N[C@H](Cc1ccc2ccccc2c1)C(=O)N[C@H](Cc1ccc(Cl)cc1)C(=O)N[C@H](Cc1ccc(O)cc1)C(=O)N[C@@H](CO)C(=O)N[C@@H](CCCCN)C(=O)N[C@H](Cc1cccnc1)C(=O)N[C@@H](CC(C)C)C(=O)N[C@@H](CCCNC(=N)N)C(=O)N1CCC[C@H]1C(=O)N[C@H](C)C(N)=O [Compound 4] (Ac-[d2Nal][dPhe(4-Cl)][dY]SK[d3Pal]LRP[dA]-NH2)
HRA (μg/ml) ED50 ± SEM (mast cells [3]): 6.1 µg/mL
